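All cell lines were grown in 96-well plates and treated with compound for 48 hours. GI50 is the concentration that inhibits growth by half. TGI is the concentration that stops growth completely.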
What was measured:
Assay in all cases: NCI-60 cell line screen, 48 h
HT29 colon = system: HT29 colon
SF-268 CNS = system: SF-268 CNS
ACHN renal = system: ACHN renal
SF-539 CNS = system: SF-539 CNS
HCT-116 colon = system: HCT-116 colon
SN12C renal = system: SN12C renal
OVCAR-3 ovarian = system: OVCAR-3 ovarian
RPMI-8226 leukemia = system: RPMI-8226 leukemia
SNB-75 CNS = system: SNB-75 CNS
OVCAR-5 ovarian = system: OVCAR-5 ovarian
RXF 393 renal = system: RXF 393 renal
UO-31 renal = system: UO-31 renal
BT-549 breast = system: BT-549 breast
UACC-62 melanoma = system: UACC-62 melanoma
NCI-H522 lung = system: NCI-H522 lung
786-0 renal = system: 786-0 renal
SNB-19 CNS = system: SNB-19 CNS
HCC-2998 colon = system: HCC-2998 colon
EKVX NSCLC = system: EKVX NSCLC
MDA-MB-435 = system: MDA-MB-435
DU-145 prostate = system: DU-145 prostate
HOP-92 NSCLC = system: HOP-92 NSCLC
A549 NSCLC = system: A549 NSCLC
A498 renal = system: A498 renal
T-47D breast = system: T-47D breast
SW-620 colon = system: SW-620 colon
CCRF-CEM leukemia = system: CCRF-CEM leukemia
OVCAR-4 ovarian = system: OVCAR-4 ovarian
SK-OV-3 ovarian = system: SK-OV-3 ovarian
K-562 leukemia = system: K-562 leukemia
SK-MEL-5 melanoma = system: SK-MEL-5 melanoma
TK-10 renal = system: TK-10 renal
U251 CNS = system: U251 CNS
IGROV1 ovarian = system: IGROV1 ovarian
MALME-3M melanoma = system: MALME-3M melanoma
MDA-MB-231 breast = system: MDA-MB-231 breast
KM12 colon = system: KM12 colon
COLO 205 colon = system: COLO 205 colon
HCT-15 colon = system: HCT-15 colon
LOX IMVI melanoma = system: LOX IMVI melanoma
HOP-62 NSCLC = system: HOP-62 NSCLC
PC-3 prostate = system: PC-3 prostate
SF-295 CNS = system: SF-295 CNS
NCI/ADR-RES ovarian = system: NCI/ADR-RES ovarian
OVCAR-8 ovarian = system: OVCAR-8 ovarian
SK-MEL-28 melanoma = system: SK-MEL-28 melanoma
M14 melanoma = system: M14 melanoma
MOLT-4 leukemia = system: MOLT-4 leukemia
NCI-H460 lung = system: NCI-H460 lung
UACC-257 melanoma = system: UACC-257 melanoma
MCF7 breast = system: MCF7 breast
HS 578T breast = system: HS 578T breast
CAKI-1 renal = system: CAKI-1 renal
NCI-H226 lung = system: NCI-H226 lung

In the case of `O=S(=O)(NCCCNc1nccc(-c2[nH]c(-c3ccccc3)nc2-c2ccc(F)c(O)c2)n1)c1ccc(C(F)(F)F)cc1`, the GI50 (HT29 colon) is reported as 2.96 µM, the GI50 (SF-268 CNS) is reported as 2.55 µM and the TGI (SF-268 CNS) is reported as 7.25 µM. It also gave a GI50 (ACHN renal) of 2.85 µM, a TGI (ACHN renal) of 8.78 µM and a GI50 (SF-539 CNS) of 2 µM. It also gave a TGI (SF-539 CNS) of 3.85 µM, a GI50 (HCT-116 colon) of 2.18 µM and a TGI (HCT-116 colon) of 5.11 µM. It also gave a GI50 (SN12C renal) of 2.59 µM, a TGI (SN12C renal) of 7.62 µM and a GI50 (OVCAR-3 ovarian) of 2.62 µM. The TGI (OVCAR-3 ovarian) was 5.49 µM, the GI50 (RPMI-8226 leukemia) was 2.49 µM and the TGI (RPMI-8226 leukemia) was 7.05 µM. It also gave a GI50 (SNB-75 CNS) of 2.22 µM, a TGI (SNB-75 CNS) of 7.79 µM and a GI50 (OVCAR-5 ovarian) of 3.12 µM. For the same compound, the TGI (OVCAR-5 ovarian) was 9.26 µM, the GI50 (RXF 393 renal) was 2.3 µM and the TGI (RXF 393 renal) was 5 µM. The GI50 (UO-31 renal) was 2.69 µM, the TGI (UO-31 renal) was 7.17 µM and the GI50 (BT-549 breast) was 2.53 µM. The TGI (BT-549 breast) was 7.12 µM, the GI50 (UACC-62 melanoma) was 1.29 µM and the TGI (UACC-62 melanoma) was 2.82 µM. It also gave a GI50 (NCI-H522 lung) of 2.42 µM, a TGI (NCI-H522 lung) of 7.12 µM and a GI50 (786-0 renal) of 3.52 µM. The TGI (786-0 renal) was 11.7 µM, the GI50 (SNB-19 CNS) was 3.51 µM and the TGI (SNB-19 CNS) was 11.1 µM. For the same compound, the GI50 (HCC-2998 colon) was 2.8 µM, the TGI (HCC-2998 colon) was 6.53 µM and the GI50 (EKVX NSCLC) was 3.61 µM. For the same compound, the TGI (EKVX NSCLC) was 16 µM, the GI50 (MDA-MB-435) was 1.59 µM and the TGI (MDA-MB-435) was 3.7 µM. It also gave a GI50 (DU-145 prostate) of 3.06 µM, a TGI (DU-145 prostate) of 11.5 µM and a GI50 (HOP-92 NSCLC) of 2.15 µM. For the same compound, the TGI (HOP-92 NSCLC) was 9.16 µM, the GI50 (A549 NSCLC) was 3.04 µM and the TGI (A549 NSCLC) was 12.4 µM. For the same compound, the GI50 (A498 renal) was 2.68 µM, the TGI (A498 renal) was 7.38 µM and the GI50 (T-47D breast) was 2.56 µM. For the same compound, the TGI (T-47D breast) was 22 µM, the GI50 (SW-620 colon) was 4.09 µM and the TGI (SW-620 colon) was 15 µM. The GI50 (CCRF-CEM leukemia) was 3.46 µM, the TGI (CCRF-CEM leukemia) was over 100 µM and the GI50 (OVCAR-4 ovarian) was 3.62 µM. For the same compound, the TGI (OVCAR-4 ovarian) was 24.1 µM, the GI50 (SK-OV-3 ovarian) was 3.46 µM and the TGI (SK-OV-3 ovarian) was 18.8 µM. It also gave a GI50 (K-562 leukemia) of 2.87 µM, a TGI (K-562 leukemia) of over 100 µM and a GI50 (SK-MEL-5 melanoma) of 1.69 µM. It also gave a TGI (SK-MEL-5 melanoma) of 3.23 µM, a GI50 (TK-10 renal) of 3.79 µM and a TGI (TK-10 renal) of 28.1 µM. It also gave a GI50 (U251 CNS) of 3.15 µM, a TGI (U251 CNS) of 9.85 µM and a GI50 (IGROV1 ovarian) of 2.41 µM. For the same compound, the TGI (IGROV1 ovarian) was 6.72 µM, the GI50 (MALME-3M melanoma) was 1.21 µM and the TGI (MALME-3M melanoma) was 3.47 µM. The GI50 (MDA-MB-231 breast) was 2.75 µM, the TGI (MDA-MB-231 breast) was 8.44 µM and the GI50 (KM12 colon) was 3.05 µM. For the same compound, the TGI (KM12 colon) was 9.09 µM, the GI50 (COLO 205 colon) was 3.06 µM and the TGI (COLO 205 colon) was 9.77 µM. It also gave a GI50 (HCT-15 colon) of 3.04 µM, a TGI (HCT-15 colon) of 9.62 µM and a GI50 (LOX IMVI melanoma) of 2.01 µM. For the same compound, the TGI (LOX IMVI melanoma) was 4.78 µM, the GI50 (HOP-62 NSCLC) was 2.89 µM and the TGI (HOP-62 NSCLC) was 10.9 µM. It also gave a GI50 (PC-3 prostate) of 3.08 µM, a TGI (PC-3 prostate) of over 100 µM and a GI50 (SF-295 CNS) of 1.88 µM. It also gave a TGI (SF-295 CNS) of 3.58 µM, a GI50 (NCI/ADR-RES ovarian) of 3.88 µM and a TGI (NCI/ADR-RES ovarian) of 18.9 µM. It also gave a GI50 (OVCAR-8 ovarian) of 3.37 µM, a TGI (OVCAR-8 ovarian) of over 100 µM and a GI50 (SK-MEL-28 melanoma) of 1.61 µM. It also gave a TGI (SK-MEL-28 melanoma) of 4.46 µM, a GI50 (M14 melanoma) of 1.46 µM and a TGI (M14 melanoma) of 4.09 µM. The GI50 (MOLT-4 leukemia) was 3.02 µM, the TGI (MOLT-4 leukemia) was over 100 µM and the GI50 (NCI-H460 lung) was 2.26 µM. It also gave a TGI (NCI-H460 lung) of 5.07 µM, a GI50 (UACC-257 melanoma) of 2.48 µM and a TGI (UACC-257 melanoma) of 7.33 µM. The GI50 (MCF7 breast) was 2.82 µM, the TGI (MCF7 breast) was 10.4 µM and the GI50 (HS 578T breast) was 2.71 µM. It also gave a TGI (HS 578T breast) of 7.12 µM, a GI50 (CAKI-1 renal) of 2.57 µM and a TGI (CAKI-1 renal) of 13.8 µM. For the same compound, the GI50 (NCI-H226 lung) was 3.85 µM and the TGI (NCI-H226 lung) was 16.7 µM.

From PubChem BioAssay (NCI)
